Assay type in all cases: cell-based
The subject of assay [1] is SW480 colon cancer cells. Briefly: Cell viability assay (CellTiter-Blue) in SW480 colon cancer cells. As to conditions: Homo sapiens, 96 h; SW480 cell viability, four days, CellTiter-Blue. The protocol:
Representative compounds were screened using the following assay procedure to assess the effect on cell viability as described below.
Approximately 2×10^3 SW480 colon cancer cells were seeded into each well and allowed to incubate in the presence or absence of compound for four days at 37° C./5% CO2. Eight replicates of DMSO-treated cells served as controls and cells treated with compound were performed in duplicate.
After incubation, 20 μL of CellTiter-Blue (Promega) was added to each well allowed to incubate for approximately 3 hours. This reagent was a buffered solution which contains resazurin, metabolically active cells were able to reduce rezarurin (blue) into resorufin (pink) which was highly fluorescent. This measured fluorescence was used as a readout for cell viability.

In assay [2] the test system is Wnt activity (Sp5-Luc reporter, TCF/LEF binding sites) in SW480 colon carcinoma cells. Nature of the assay: Wnt activity screening assay: Sp5-Luc reporter gene assay in SW480 cells. The settings on record: Homo sapiens; for EC50: Sp5-Luc reporter, SW480 cells, overnight incubation. From the text:
The screening assay for Wnt activity is described as follows. Reporter cell lines can be generated by stably transducing cancer cell lines (e.g., colon cancer) or primary cells (e.g., IEC-6 intestinal cells) with a lentiviral construct that includes a Wnt-responsive promoter driving expression of the firefly luciferase gene.
SW480 colon carcinoma cells were transduced with a lentiviral vector expressing luciferase with a human Sp5 promoter consisting of a sequence of eight TCF/LEF binding sites. SW480 cells stably expressing the Sp5-Luc reporter gene and a hygromycin resistance gene were selected by treatment with 150 μg/mL of hygromycin for 7 days. These stably transduced SW480 cells were expanded in cell culture and used for all further screening activities. […] For Sp5-Luc reporter gene assays, the cells were plated at 4,000 cells/well in 384-well plates with medium containing 1% fetal bovine serum and incubated overnight at 37° C. and 5% CO2. Following incubation, 20 μl of BrightGlo luminescence reagent (Promega) was added to each well of the 384-well assay plates. The plates were placed on an orbital shaker for 2 min and then luminescence was quantified using the Envision (Perkin Elmer) plate reader. Readings were normalized to DMSO only treated cells, and normalized activities were utilized for EC50 calculations using the dose-response log (inhibitor) vs. response variable slope (four parameters) nonlinear regression feature available in GraphPad Prism 5.0 (or Dotmatics).
(A reporter such as luciferase makes a cellular process visible.)

In assay [3] the test system is primary human mesenchymal stem cells (hMSCs). Nature of the assay: Induction of chondrogenesis in primary human mesenchymal stem cells (chondrogenic nodules, Rhodamine B / Nile Red). As to conditions: 6 days; for EC50: concentration required to induce 50% levels of chondrogenesis vs TGF-β3, read-out: Conc (nM) of 50% TGF-β3 activity; for Emax: relative to TGF-β3 (10 ng/mL) positive control, read-out: Max. Activity as % TGF-β3 activity. The text has this: Representative compounds were screened using primary human mesenchymal stem cells (hMSCs) to determine their ability to induce chondrogenesis (process by which cartilage is developed).
Human Mesenchymal Stem Cell Culture: Primary human mesenchymal stem cells (hMSCs) were purchased from Lonza (Walkersville, Md.) and expanded in Mesenchymal Stem Cell Growth Media (Lonza). Cells between passage 3 and 6 were used for the experiments.
To image chondrogenic nodules, the cells were fixed using 4% formaldehyde (Electron Microscopy Sciences), and stained with 2 μg/mL Rhodamine B (Sigma-Aldrich) and 20 μM Nile Red (Sigma-Aldrich) [Johnson K., et. al, A Stem Cell-Based Approach to Cartilage Repair, Science, (2012). […] Number of nodules in each well was normalized to the average of 3 DMSO treated wells on the same plate using Excel (Microsoft Inc.). The normalized averages (fold change over DMSO) of 3 replicate wells for each compound concentration were calculated. Due to solubility limitations of some of the compounds, curve fitting was incomplete leading to inaccurate EC50 determinations.
Using TGF-β3 as a positive control, the concentration of representative compounds required to induce 50% levels of chondrogenesis is reported. In addition, the maximum activity of each compound and the respective dose that each compound reached maximum chondrogenesis activity is reported.

For assay [4], the system named is IL-6 in THP-1 cells. Nature of the assay: IL-6 inhibition in LPS-stimulated THP-1 human monocyte cells (HTRF). The settings on record: for EC50: IL-6 inhibition, LPS-stimulated THP-1 cells, HTRF, 10-point dose-response starting from 10 μM; for inhibition at 10 µM: THP-1, read-out: percentage in parentheses beside EC50 >10. On the procedure: Compound Screening: THP-1 cells were cultured in basal media with 1% FBS for 24 hours before the start of the assay. […] THP-1 cells were plated at 5000 cells/well in the 384-well plates and incubated at 37° C. for 2 h. 500 ng/mL of LPS was added after 2 hours and cells were incubated for another 22 hours at 37° C. Plates were spun in a centrifuge for 1 minute at […] and a mixture of anti-IL6 XL665, and anti-IL6 Cryptate diluted in reconstitution buffer (Cisbio Inc.) was added to each well. Following incubation for 3 hrs at room temperature, Homogeneous Time-Resolved Fluorescence (HTRF) was measured using the Envision (Perkin Elmer) at 665 nm and […]. The ratio of fluorescence at 665 nm to 620 nm was used as a readout for IL6 quantification. All samples were processed in duplicate. Readings were normalized to DMSO treated cells and normalized activities were utilized for EC50 calculations using the dose-response log (inhibitor) vs. response variable slope (four parameters) nonlinear regression feature available in GraphPad Prism 5.0 (or Dotmatics).

For assay [5], the system named is LL29 cells (primary human fibroblasts derived from IPF patients), α-smooth muscle actin. Briefly: Inhibition of the fibrotic process: αSMA staining in TGF-β1 treated primary human fibroblasts from IPF patients (LL29 cells). As to conditions: Fibroblast; for EC50: 96 h, LL29 cells, TGF-β1 20 ng/mL, 4 days, % αSMA positive cells. On the procedure: Representative compounds were screened using primary human fibroblasts (derived from IPF patients) treated with TGF-β1 to determine their ability to inhibit the fibrotic process.
LL29 cells are plated at 1,500 cells/well in 80 μL/well F12 medium supplemented with 1% Fetal Bovine Serum. […] Wells treated with TGF-β1 and containing DMSO were used as controls. […] Following incubation for 4 days, SYTOX green nucleic acid stain (Life Technologies [Thermo Fisher Scientific]) was added to the wells at a final concentration of 1 μM and incubated at room temperature for 30 min.

In the case of `Fc1ccc(-c2nccc3[nH]c(-c4n[nH]c5ncc(-c6cncc(CNCc7ccccc7)c6)cc45)cc23)cc1` [Compound 52, N-Benzyl-1-(5-(3-(4-(4-fluorophenyl)-1H-pyrrolo[3,2-c]pyridin-2-yl)-1H-pyrazolo[3,4-b]pyridin-5-yl)pyridin-3-yl)methanamine], the EC50 in assay [1] turned out to be 346 nM; in assay [2], 854 nM; in assay [3], 900 nM; in assay [4] it was 1260 nM; in assay [5], 458 nM. The Emax in assay [3] amounted to 179%.
As to `CN(C)c1cncc(-c2cnc3[nH]nc(-c4cc5cnccc5[nH]4)c3c2)c1` [Compound 259, 5-(3-(1H-Pyrrolo[3,2-c]pyridin-2-yl)-1H-pyrazolo[3,4-b]pyridin-5-yl)-N,N-dimethylpyridin-3-amine], the EC50 in assay [1] was 1630 nM; in assay [2], 3760 nM; in assay [3], 10 nM; in assay [4] it was > 10000 nM; in assay [5], 1430 nM. Also, the Emax in assay [3] stood at 80%. Besides, in assay [4], the inhibition at 10 µM worked out at 20.1%.
For `O=C(Nc1cncc(-c2cnc3[nH]nc(-c4cc5c(N6CCCCC6)nccc5[nH]4)c3c2)c1)C1CC1` [Compound 188, N-(5-(3-(4-(Piperidin-1-yl)-1H-pyrrolo[3,2-c]pyridin-2-yl)-1H-pyrazolo[3,4-b]pyridin-5-yl)pyridin-3-yl)cyclopropanecarboxamide], the EC50 in assay [1] is 6710 nM; in assay [2] it was 3850 nM; in assay [4], 2540 nM; in assay [5] it was > 10000 nM. For the same compound, the Emax in assay [3] amounted to 42%. Further, the inhibition at 10 µM in assay [5] (read-out: percent inhibition at 10 μM) is 0%.
For the compound `CCCCC(=O)Nc1cncc(-c2cnc3[nH]nc(-c4cc5c(-c6ccc(F)cc6)nccc5[nH]4)c3c2)c1` [Compound 47, N-(5-(3-(4-(4-Fluorophenyl)-1H-pyrrolo[3,2-c]pyridin-2-yl)-1H-pyrazolo[3,4-b]pyridin-5-yl)pyridin-3-yl)pentanamide], the EC50 in assay [1] was 839 nM; in assay [2], > 10000 nM; in assay [3], 30 nM; in assay [4] it was > 10000 nM; in assay [5] it was 73 nM. For the same compound, the inhibition at 10 µM in assay [2] (SW480, read-out: percent inhibition at 10 μM) was determined as 46.9%; in assay [4], 24.7%. Also, the Emax in assay [3] was determined as 85%.
With `Cn1cc(-c2cnc3[nH]nc(-c4cc5c(-c6cccnc6)nccc5[nH]4)c3c2)cn1` [Compound 556, 5-(1-Methyl-1H-pyrazol-4-yl)-3-(4-(pyridin-3-yl)-1H-pyrrolo[3,2-c]pyridin-2-yl)-1H-pyrazolo[3,4-b]pyridine], the EC50 was found to be 975 nM in assay [1], 318 nM in assay [2], 355 nM in assay [4] and 98 nM in assay [5]. Further, the Emax in assay [3] came out at 33%.
Regarding `CC(C)C(=O)Nc1cncc(-c2cnc3[nH]nc(-c4cc5c(-c6cccc(F)c6)nccc5[nH]4)c3c2)c1` [Compound 9, N-(5-(3-(4-(3-Fluorophenyl)-1H-pyrrolo[3,2-c]pyridin-2-yl)-1H-pyrazolo[3,4-b]pyridin-5-yl)pyridin-3-yl)isobutyramide], the EC50 in assay [1] turned out to be 770 nM; in assay [2], 575 nM; in assay [4], 206 nM; in assay [5], 622 nM. For the same compound, the Emax in assay [3] stood at 29%.
For the compound `CC(C)(C)CC(=O)Nc1cncc(-c2cnc3[nH]nc(-c4cc5cnccc5[nH]4)c3c2)c1` [Compound 268, N-(5-(3-(1H-Pyrrolo[3,2-c]pyridin-2-yl)-1H-pyrazolo[3,4-b]pyridin-5-yl)pyridin-3-yl)-3,3-dimethylbutanamide], the EC50 in assay [1] was found to be 1100 nM; in assay [2] it was 605 nM; in assay [4], 683 nM; in assay [5], 3350 nM. Further, the Emax in assay [3] came to 7%.

Source of the values: patent US10226448B2, “3-(1H-pyrrolo[3,2-C]pyridin-2-yl)-1H-pyrazolo[3,4-B]pyridines and therapeutic uses thereof” (Samumed, LLC, priority 2015, dated 2019).
